In ChEMBL document CHEMBL1201862, “PubChem BioAssay data set” (2004):
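Tested at 5 concentrations; 48 h exposure; 96-well plates; endpoints linearly interpolated, else capped at highest concentration. GI50 = concentration required for 50% inhibition of growth.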 Calls of active or inactive are those of the source. Rule as the data show it: active = GI50 up to about 1.1 µM and inactive = higher.

What was measured:
Assay in all cases: inhibition of tumour cell growth, NCI panel, 48 h
[1] = tested on: DMS-114
[2] = tested on: RXF 631
[3] = tested on: LXFL 529
[4] = tested on: HOP-18
[5] = tested on: SNB-78
[6] = tested on: DMS-273
[7] = tested on: DLD-1
[8] = tested on: M19-MEL
[9] = tested on: XF498

Row | Compound | GI50 [1] | GI50 [2] | GI50 [3] | GI50 [4] | GI50 [5] | GI50 [6] | GI50 [7] | GI50 [8] | GI50 [9]
1 | CN(C)CCNC(=O)c1cccc2ncc(-c3ccccc3)nc12 | 12.8 µM (inactive) | 9.59 µM (inactive) | 6.81 µM (inactive) | 5.85 µM (inactive) | 8.89 µM (inactive) | 5.09 µM (inactive) | 5.45 µM (inactive) | 14.2 µM (inactive) | –
2 | OC(c1cc2ccccc2[nH]1)C(O)(c1cc2ccccc2[nH]1)c1cc2ccccc2[nH]1 (stereo unspecified) | 7.31 µM (inactive) | 17.4 µM (inactive) | 10 µM (inactive) | – | – | 17.9 µM (inactive) | 11 µM (inactive) | 7.06 µM (inactive) | –
3 | O=C1c2cccc3c(Cl)ccc(c23)C(=O)N1CCCN1CCN(CCCN2C(=O)c3cccc4c(Cl)ccc(c34)C2=O)CC1 | > 100 µM (inactive) | 76.7 µM (inactive) | > 100 µM (inactive) | > 100 µM (inactive) | 90.8 µM (inactive) | > 100 µM (inactive) | 50.5 µM (inactive) | – | > 100 µM (inactive)
4 | C=C1C(=O)O[C@@H]2[C@H]1CCC(C)=C1C=CC(=O)[C@]12C | 14.3 µM (inactive) | 11.3 µM (inactive) | 13.8 µM (inactive) | 15.9 µM (inactive) | 4.61 µM (inactive) | 17.3 µM (inactive) | 14.9 µM (inactive) | – | –
5 | O=C1OC2(c3ccccc3Oc3ccccc32)c2ccccc21 | > 100 µM (inactive) | – | > 100 µM (inactive) | > 100 µM (inactive) | > 100 µM (inactive) | > 100 µM (inactive) | > 100 µM (inactive) | > 100 µM (inactive) | –
6 | N=C(N)SCc1cn2ccccc2n1 | > 100 µM (inactive) | – | – | > 100 µM (inactive) | > 100 µM (inactive) | > 100 µM (inactive) | 77.8 µM (inactive) | > 100 µM (inactive) | > 100 µM (inactive)
7 | O=C(/C=C/c1ccccc1O)c1cccc2ccccc12 | 21.4 µM (inactive) | > 100 µM (inactive) | 36.2 µM (inactive) | 28.1 µM (inactive) | > 100 µM (inactive) | 54.5 µM (inactive) | 37.3 µM (inactive) | > 100 µM (inactive) | 25.8 µM (inactive)
8 | Cc1ccc(SCC(=O)C2=C(O)CCCC2=O)cc1 | > 100 µM (inactive) | > 100 µM (inactive) | > 100 µM (inactive) | > 100 µM (inactive) | > 100 µM (inactive) | > 100 µM (inactive) | > 100 µM (inactive) | > 100 µM (inactive) | > 100 µM (inactive)
9 | COc1cc(/C=C/C(=O)Oc2ccccc2)ccc1C(=O)O/C=C/c1ccccc1 | > 100 µM (inactive) | – | – | > 100 µM (inactive) | > 100 µM (inactive) | > 100 µM (inactive) | > 100 µM (inactive) | > 100 µM (inactive) | > 100 µM (inactive)
10 | CCOc1ccccc1N1C(=O)C(=O)C(c2nc3ccccc3o2)/C(=N\N)C1=O (stereo unspecified) | > 100 µM (inactive) | – | > 100 µM (inactive) | – | > 100 µM (inactive) | > 100 µM (inactive) | > 100 µM (inactive) | > 100 µM (inactive) | –
11 | O=C(CCn1[nH]c(=O)c(Cl)c(Cl)c1=O)NOCCCc1ccccc1 | – | > 100 µM (inactive) | > 100 µM (inactive) | > 100 µM (inactive) | > 100 µM (inactive) | > 100 µM (inactive) | > 100 µM (inactive) | > 100 µM (inactive) | > 100 µM (inactive)
12 | Cc1cccc(C(C)(C)C)c1NC(=O)C(=O)C(c1cnc2ccccc2n1)[N+](=O)[O-] (stereo unspecified) | > 100 µM (inactive) | – | > 100 µM (inactive) | > 100 µM (inactive) | > 100 µM (inactive) | > 100 µM (inactive) | > 100 µM (inactive) | > 100 µM (inactive) | > 100 µM (inactive)
13 | O=c1[nH]cnc(NC2C=C(CO)C(O)C2O)c1[N+](=O)[O-] (stereo unspecified) | > 51.3 µM (inactive) | – | > 100 µM (inactive) | > 100 µM (inactive) | > 100 µM (inactive) | > 47.2 µM (inactive) | > 58.6 µM (inactive) | > 76.6 µM (inactive) | > 100 µM (inactive)
14 | CCCCNCCCNCCCNC(=O)c1csc(-c2csc(CCNC(=O)C(NC(=O)C(C)C(O)C(C)NC(=O)C(NC(=O)c3nc(C(CC(N)=O)NCC(N)C(N)=O)nc(N)c3C)C(OC3OC(CO)C(O)C(O)C3OC3OC(CO)C(O)C(OC(N)=O)C3O)c3c[nH]cn3)C(C)O)n2)n1 (stereo unspecified) | 0.611 µM (active) | 3.58 µM (inactive) | 40.6 µM (inactive) | 37.7 µM (inactive) | > 73.3 µM (inactive) | < 0.0458 µM (active) | 20.9 µM (inactive) | 8.89 µM (inactive) | –
15 | CC1=N/C(=C\c2ccc(N)cc2)C(=O)N1Nc1nnc(NN2C(=O)/C(=C/c3ccc(N)cc3)N=C2C)c2ccccc12 | – | – | 36.3 µM (inactive) | 27.1 µM (inactive) | – | 77.3 µM (inactive) | > 100 µM (inactive) | 38.1 µM (inactive) | –
16 | CC(=O)O[C@H]1CSC[C@@H](OC(C)=O)C1[N+](=O)[O-] (stereo partly specified) | 39.1 µM (inactive) | > 100 µM (inactive) | 18 µM (inactive) | 50.7 µM (inactive) | 33.4 µM (inactive) | > 100 µM (inactive) | – | 47.3 µM (inactive) | –
17 | CCOP1(=O)C=C(C)C(Cl)=C(C)C1 (stereo unspecified) | 17.5 µM (inactive) | 2.75 µM (inactive) | 17.3 µM (inactive) | 68.7 µM (inactive) | – | 13.6 µM (inactive) | 25.9 µM (inactive) | 21.1 µM (inactive) | 26.8 µM (inactive)
